Laboratory results taken from patent US4384118A, “4-(3-Iodopropargyloxy) pyrimidine derivatives” (SPOFA, spojene podniky pro zdravotnickou vyrobu, priority 1980, dated 1983).
Converted amounts (≈) assume the structure as drawn. Like-named read-outs stand apart in the source and are kept apart here.

What was measured:
Type in all cases: cell-based
[1] = system: Trichophyton Mentagrophytes; test: Minimum inhibitory concentration vs Trichophyton Mentagrophytes; conditions: for activity against Trichophyton mentagrophytes compared with known antimycotic agents: comparison with best antimycotic agents previously known; for activity against Trichophyton mentagrophytes (in words): same range as the minimum inhibitory concentrations in Aspergillus niger, 0.3 to 0.7 μg/ml; for MIC: Table A, TM = Trichophyton Mentagrophytes, read-out: Minimum Inhibitory Concentrations
Excerpt: (§1) For comparative purposes, three of the compounds of formula (1) were compared with Clotrimazole and Haloprogine, well known prior art antimycotic compounds. Comparisons of minimum inhibitory concentration in μg/ml. were made with respect to four strains of […].

Epidermophyton floccosum = test: Minimum inhibitory concentration vs Epidermophyton floccosum; conditions: Table B
Experimental: (§2) Additionally, certain compounds of the invention were evaluated with respect to other mold species. Thus, for example, 2-ethylthio-4-(3 iodopropargyloxy) pyrimidine was evaluated with respect to the species identified in Table B, below and the noted minimum inhibitory cencentrations determined: […]

Sporotrichum cejpii = test: Minimum inhibitory concentration vs Sporotrichum cejpii; conditions: Table B
Experimental: as §2

Microsporum Canis = test: Minimum inhibitory concentration vs Microsporum Canis; conditions: Table B
Experimental: as §2

Keratinomyces ajelloi = test: Minimum inhibitory concentration vs Keratinomyces ajelloi; conditions: Table B
Experimental: as §2

Microsporum gypseum = test: Minimum inhibitory concentration vs Microsporum gypseum; conditions: Nannizzia gypsea, Table B
Experimental: as §2

[2] = system: Trichophyton schoenleinii; test: Minimum inhibitory concentration vs Trichophyton schoenleinii; conditions: Table B
Experimental: as §2

Trichophyton rubrum = test: Minimum inhibitory concentration vs Trichophyton rubrum; conditions: Table B
Experimental: as §2

Trichophyton verrucosum = test: Minimum inhibitory concentration vs Trichophyton verrucosum; conditions: Table B
Experimental: as §2

Aspergillus Niger = test: Minimum inhibitory concentration vs Aspergillus Niger
Excerpt: as §1

Sacharomyces Pastorianus = test: Minimum inhibitory concentration vs Sacharomyces Pastorianus; conditions: Table A, SP = Sacharomyces Pastorianus; read-out: Minimum Inhibitory Concentrations
Excerpt: as §1

Candida Alicans = test: Minimum inhibitory concentration vs Candida Alicans; conditions: Table A, CA = Candida Alicans; read-out: Minimum Inhibitory Concentrations
Excerpt: as §1

[3] = Aspergillus niger, read-out: minimum inhibitory concentration
[4] = Table A, AN = Aspergillus Niger, read-out: Minimum Inhibitory Concentrations

`COc1cnc(N)nc1OCC#CI` [2-amino-5-methoxy-4-(3-iodopropargyloxy) pyrimidine] was tested, and the “activity against Trichophyton mentagrophytes compared with known antimycotic agents” value [1] was “comparable with that of the best antimycotic agents previously known” and the “activity against Trichophyton mentagrophytes (in words)” value (from here on “activity … (in words)”) [1] was “lies in the same range”.

Work on `CCSc1nccc(OCC#CI)n1` [2-ethylthio-4-(3 iodopropargyloxy) pyrimidine] yielded an MIC (Epidermophyton floccosum) of 0.3 µg/mL (≈ 0.937 µM), an MIC (Sporotrichum cejpii) of 0.3 µg/mL (≈ 0.937 µM) and an MIC (Microsporum Canis) of 0.15 µg/mL (≈ 0.469 µM). It also gave an MIC (Keratinomyces ajelloi) of 0.3 µg/mL (≈ 0.937 µM), an MIC (Microsporum gypseum) of 0.3 µg/mL (≈ 0.937 µM) and an MIC [2] of 0.03 µg/mL (≈ 0.0937 µM). For the same molecule, the MIC (Trichophyton rubrum) was 0.07 µg/mL (≈ 0.219 µM) and the MIC (Trichophyton verrucosum) was 0.15 µg/mL (≈ 0.469 µM).

Work on `CCSc1ncc(OC)c(OCC#CI)n1` [2-ethylthio-5-methoxy-4-(3-iodopropargyloxy) pyrimidine] yielded an MIC (Aspergillus Niger; [3]) of 0.03 µg/mL (≈ 0.0857 µM).

For `CSc1nccc(OCC#CI)n1` [2-methylthio-4-(3-iodopropargyloxy) pyrimidine], the “activity against Trichophyton mentagrophytes compared with known antimycotic agents” value [1] was “comparable with that of the best antimycotic agents previously known” and the “activity … (in words)” value [1] was “lies in the same range”.

For `CSc1ncc(Br)c(OCC#CI)n1` [2-methylthio-5-bromo-4-(3-iodopropargyloxy) pyrimidine], the MIC (Aspergillus Niger; [3]) was 0.01 µg/mL (≈ 0.026 µM).

Molecule `CCOc1cnc(SC)nc1OCC#CI` [2-methylthio-5-ethoxy-4-(3-iodopropargyloxy) pyrimidine] has an MIC (Aspergillus Niger; [3]) of 0.07 µg/mL (≈ 0.2 µM).

In the case of `COc1cnc(SC)nc1OCC#CI` [2-methylthio-5-methoxy-4-(3-iodopropargyloxy) pyrimidine], the “activity against Trichophyton mentagrophytes compared with known antimycotic agents” value [1] is reported as “comparable with that of the best antimycotic agents previously known” and the “activity … (in words)” value [1] is reported as “lies in the same range”.

For `Clc1ccccc1C(c1ccccc1)(c1ccccc1)n1ccnc1` [Clotrimazole, reference compound], the MIC (Sacharomyces Pastorianus) was 3.1 µg/mL (≈ 8.99 µM), the MIC (Aspergillus Niger; [4]) was 3.1 µg/mL (≈ 8.99 µM) and the MIC (Candida Alicans) was 0.3 µg/mL (≈ 0.87 µM). The MIC [1] was 0.03 µg/mL (≈ 0.087 µM).

`CCCSc1ncc(OC)c(OCC#CI)n1` [Compound I, 2 propylthio5-methoxy-4-(3 iodoprogargyloxy) pyrimidine] was tested, and the MIC (Sacharomyces Pastorianus) was 0.3 µg/mL (≈ 0.824 µM), the MIC (Aspergillus Niger; [4]) was 0.01 µg/mL (≈ 0.0275 µM) and the MIC (Candida Alicans) was 3.1 µg/mL (≈ 8.51 µM). For the same molecule, the MIC [1] was 0.07 µg/mL (≈ 0.192 µM).

`C=CCSc1nccc(OCC#CI)n1` [Compound II, 2allylthio-4-(3-iodopropargyloxy) pyrimidine] was tested, and the MIC (Sacharomyces Pastorianus) was 0.15 µg/mL (≈ 0.452 µM), the MIC (Aspergillus Niger; [4]) was 0.3 µg/mL (≈ 0.903 µM) and the MIC (Candida Alicans) was 0.7 µg/mL (≈ 2.11 µM). The MIC [1] was 0.07 µg/mL (≈ 0.211 µM).

Work on `Clc1cc(Cl)c(OCC#CI)cc1Cl` [Haloprogine, reference compound] yielded an MIC (Candida Alicans) of 1.2 µg/mL (≈ 3.32 µM) and an MIC [1] of 0.6 µg/mL (≈ 1.66 µM).
